Test results taken from patent US8247556B2, “Method for preparing 6-substituted-7-aza-indoles” (Amgen Inc., priority 2005, dated 2012).

Tested on: VEGF-stimulated HUVEC proliferation (Human Umbilical Vein Endothelial cells)
Assay: HUVEC Proliferation Assay
Assay type: cell-based
Details: VEGF 50 ng/mL, 72 h, CyQuant fluorescent dye, read-out: inhibited VEGF-stimulated HUVEC proliferation at a level
Description: Human Umbilical Vein Endothelial cells are purchased from Clonetics, Inc., as cryopreserved cells harvested from a pool of donors. These cells, at passage 1, are thawed and expanded in EBM-2 complete medium, until passage 2 or 3. The cells are trypsinized, washed in DMEM+10% FBS+antibiotics, and spun at 1000 rpm for 10 min. Prior to centrifugation of the cells, a small amount is collected for a cell count. After centrifugation, the medium is discarded, and the cells are resuspended in the appropriate volume of DMEM+10% FBS+antibiotics to achieve a concentration of 3×10^5 cells/mL. Another cell count is performed to confirm the cell concentration. The cells are diluted to 3×10^4 cells/mL in DMEM+10% FBS+antibiotics, and 100 μL of cells are added to a 96-well plate. The cells are incubated at 37° C. for 22 h.
Prior to the completion of the incubation period, compound dilutions are prepared. Five-point, five-fold serial dilutions are prepared in DMSO, at concentrations 400-fold greater than the final concentrations desired. 2.5 μL of each compound dilution are diluted further in a total of 1 mL DMEM+10% FBS+antibiotics (400× dilution). Medium containing 0.25% DMSO is also prepared for the 0 μM compound sample. At the 22 h time point, the medium is removed from the cells, and 100 μL of each compound dilution is added. The cells are incubated at 37° C. for 2-3 h.
During the compound pre-incubation period, the growth factors are diluted to the appropriate concentrations. Solutions of DMEM+10% FBS+antibiotics, containing either VEGF or bFGF at the following concentrations: 50, 10, 2, 0.4, 0.08, and 0 ng/mL are prepared. For the compound-treated cells, solutions of VEGF at 550 ng/mL or bFGF at 220 ng/mL for 50 ng/mL or 20 ng/mL final concentrations, respectively, are prepared since 10 μL of each will be added to the cells (110 μL final volume). At the appropriate time after adding the compounds, the growth factors are added. VEGF is added to one set of plates, while bFGF is added to another set of plates. For the growth factor control curves, the media on wells B4-G6 of plates 1 and 2 are replaced with media containing VEGF or bFGF at the varying concentrations (50-0 ng/mL). The cells are incubated at 37° C. for an additional 72 h.
At the completion of the 72 h incubation period, the medium is removed, and the cells are washed twice with PBS. After the second wash with PBS, the plates are tapped gently to remove excess PBS, and the cells are placed at −70° C. for at least 30 min. The cells are thawed and analyzed using the CyQuant fluorescent dye (Molecular Probes C-7026), following the manufacturer's recommendations. The plates are read on a Victor/Wallac 1420 workstation at 485 nm/530 nm (excitation/emission). Raw data are collected and analyzed using a 4-parameter fit equation in XLFit. IC50 values are then determined.

Row | Compound | IC50 [nM]
1 | O=C(Nc1cc(CCCN2CCOCC2)cc(C(F)(F)F)c1)c1cccnc1NCc1ccnc2[nH]ccc12 [Example 60, N-(3-(3-(4-morpholinyl)propyl)-5-(trifluoromethyl)phenyl)-2-((1H-pyrrolo[2,3-b]pyridin-4-ylmethyl)amino)-3-pyridinecarboxamide] | < 500
2 | CC1(C)CCNc2cc(NC(=O)c3cccnc3NCc3ccnc4[nH]ncc34)ccc21 [Example 71, N-(4,4-Dimethyl-1,2,3,4-tetrahydro-7-quinolinyl)-2-((1H-pyrazolo[3,4-b]pyridin-4-ylmethyl)amino)-3-pyridinecarboxamide] | < 500
3 | O=C(Nc1ccc(C(F)(F)F)c(Cl)c1)c1cc(F)cnc1NCc1ccnc2[nH]ccc12 [Example 100, N-(3-chloro-4-(trifluoromethyl)phenyl)-5-fluoro-2-((1H-pyrrolo[2,3-b]pyridin-4-ylmethyl)amino)-3-pyridinecarboxamide] | < 500
4 | O=C(Nc1ccc2c(c1)NCC21CC1)c1cccnc1NCc1ccnc2[nH]ccc12 [Example 8] | < 500
5 | O=C(Nc1ccc(C(F)(F)F)c(OCC2CCCO2)c1)c1cccnc1NCc1ccnc2[nH]ccc12 (stereo not drawn) [Example 57, 2-[(1H-Pyrrolo[2,3-b]pyridin-4-ylmethyl)-amino]-N-[3-(tetrahydro-furan-2-ylmethoxy)-4-trifluoromethyl-phenyl]-nicotinamide] | < 500
6 | O=C(Nc1ccc(C(OC[C@@H]2CCCN2)(C(F)(F)F)C(F)(F)F)cc1)c1cccnc1NCc1ccnc2[nH]ccc12 [Example 20, (S)-2-((1H-pyrrolo[2,3-b]pyridin-4-yl)methylamino)-N-(4-(1,1,1,3,3,3-hexafluoro-2-(pyrrolidin-2-ylmethoxy)propan-2-yl)phenyl)nicotinamide] | < 500
7 | CC(C)Oc1ccc(NC(=O)c2cc(F)cnc2NCc2ccnc3[nH]ncc23)cc1 [Example 124, 5-Fluoro-N-(4-((1-methylethyl)oxy)phenyl)-2-((1H-pyrazolo[3,4-b]pyridin-4-ylmethyl)amino)-3-pyridinecarboxamide] | < 500
8 | Cc1nc2cc(NC(=O)c3ccc(F)nc3NCc3ccnc4[nH]ccc34)ccc2s1 [Example 37, 2-((1H-Pyrrolo[2,3-b]pyridin-4-yl)methylamino)-6-fluoro-N-(2-methylbenzo[d]thiazol-5-yl)nicotinamide] | < 500
9 | O=C(Nc1cc(CCCN2CCCCC2)cc(C(F)(F)F)c1)c1cccnc1NCc1ccnc2[nH]ccc12 [Example 62, N-[3-(3-Piperidin-1-yl-propyl)-5-trifluoromethyl-phenyl]-2-[(1H-pyrrolo[2,3-b]pyridin-4-ylmethyl)-amino]-nicotinamide] | < 500
10 | Cc1ccc(NC(=O)c2cc(F)cnc2NCc2ccnc3[nH]ccc23)cc1Cl [Example 110, N-(3-chloro-4-methylphenyl)-5-fluoro-2-((1H-pyrrolo[2,3-b]pyridin-4-ylmethyl)amino)-3-pyridinecarboxamide] | < 500
11 | CC1(C)CCNc2cc(NC(=O)c3cccnc3NCc3ncnc4[nH]ccc34)ccc21 [Example 131, N-(4,4-Dimethyl-1,2,3,4-tetrahydro-7-quinolinyl)-2-((7H-pyrrolo[2,3-d]pyrimidin-4-ylmethyl)amino)-3-pyridinecarboxamide] | < 500
12 | CC1(C)CNCc2cc(NC(=O)c3cccnc3NCc3ccnc4c3CCN4)ccc21 [Example 25, 2-[(2,3-Dihydro-1H-pyrrolo[2,3-b]pyridin-4-ylmethyl)amino]-N-(4,4-dimethyl-1,2,3,4-tetrahydroisoquinolin-7-yl)nicotinamide] | < 500
13 | O=C(Nc1ccc(C(F)(F)F)c(F)c1)c1cc(F)cnc1NCc1ccnc2[nH]ncc12 [Example 128, 5-Fluoro-N-(3-fluoro-4-(trifluoromethyl)phenyl)-2-((1H-pyrazolo[3,4-b]pyridin-4-ylmethyl)amino)-3-pyridinecarboxamide] | < 500
14 | Cc1ccc(NC(=O)c2cc(F)cnc2NCc2ccnc3[nH]ccc23)cc1F [Example 111, 5-fluoro-N-(3-fluoro-4-methylphenyl)-2-((1H-pyrrolo[2,3-b]pyridin-4-ylmethyl)amino)-3-pyridinecarboxamide] | < 500
15 | CC1(C)CNCc2cc(NC(=O)c3cc(F)cnc3NCc3ccnc4[nH]ccc34)ccc21 [Example 101, N-(4,4-dimethyl-1,2,3,4-tetrahydro-7-isoquinolinyl)-5-fluoro-2-((1H-pyrrolo[2,3-b]pyridin-4-ylmethyl)amino)-3-pyridinecarboxamide] | < 500
16 | CN1CCC[C@H]1COc1cc(NC(=O)c2cccnc2NCc2ccnc3[nH]ccc23)cc(C(F)(F)F)c1 [Example 35, N-[3-{[(2S)-1-methylpyrrolidin-2-yl]methoxy}-5-(trifluoromethyl)phenyl]-2-[(1H-pyrrolo[2,3-b]pyridin-4-ylmethyl)amino]nicotinamide] | < 500
17 | CN(C)c1nc2cc(NC(=O)c3cc(F)cnc3NCc3ccnc4[nH]ccc34)ccc2s1 [Example 114, N-(2-(dimethylamino)-1,3-benzothiazol-5-yl)-5-fluoro-2-((1H-pyrrolo[2,3-b]pyridin-4-ylmethyl)amino)-3-pyridinecarboxamide] | < 500
18 | O=C(Nc1ccc(C(F)(F)C(F)(F)F)c(CN2CCNCC2)c1)c1cccnc1NCc1ccnc2[nH]ccc12 [Example 45, N-(4-Pentafluoroethyl-3-piperazin-1-ylmethyl-phenyl)-2-[(1H-pyrrolo[2,3-b]pyridin-4-ylmethyl)-amino]-nicotinamide] | < 500
19 | CC1(C)CNCc2cc(NC(=O)c3cc(F)cnc3NCc3ccnc4[nH]ncc34)ccc21 [Example 129, N-(4,4-Dimethyl-1,2,3,4-tetrahydro-7-isoquinolinyl)-5-fluoro-2-((1H-pyrazolo[3,4-b]pyridin-4-ylmethyl)amino)-3-pyridinecarboxamide] | < 500
20 | O=C(Nc1ccc(Cl)c(C(F)(F)F)c1)c1cc(F)cnc1NCc1ccnc2[nH]ccc12 [Example 90, N-(4-chloro-3-(trifluoromethyl)phenyl)-5-fluoro-2-((1H-pyrrolo[2,3-b]pyridin-4-ylmethyl)amino)-3-pyridinecarboxamide] | < 500
21 | CC(C)(C)c1ccc(NC(=O)c2cc(Cl)cnc2NCc2ccnc3[nH]ccc23)cc1 [Example 88, 5-chloro-N-(4-(1,1-dimethylethyl)phenyl)-2-((1H-pyrrolo[2,3-b]pyridin-4-ylmethyl)amino)-3-pyridinecarboxamide] | < 500
22 | O=C(Nc1cccc(C(OC[C@@H]2CCCN2)(C(F)(F)F)C(F)(F)F)c1)c1cccnc1NCc1ccnc2[nH]ccc12 [Example 19, (S)-2-((1H-pyrrolo[2,3-b]pyridin-4-yl)methylamino)-N-(3-(1,1,1,3,3,3-hexafluoro-2-(pyrrolidin-2-ylmethoxy)propan-2-yl)phenyl)nicotinamide] | < 500
23 | Cc1ccc(NC(=O)c2cc(F)cnc2NCc2ccnc3[nH]ccc23)cc1 [Example 109, 5-fluoro-N-(4-methylphenyl)-2-((1H-pyrrolo[2,3-b]pyridin-4-ylmethyl)amino)-3-pyridinecarboxamide] | < 500
24 | CC1Sc2ccc(NC(=O)c3cc(F)cnc3NCc3ccnc4[nH]ccc34)cc2NC1=O (stereo not drawn) [Example 108, 5-fluoro-N-(2-methyl-3-oxo-3,4-dihydro-2H-1,4-benzothiazin-6-yl)-2-((1H-pyrrolo[2,3-b]pyridin-4-ylmethyl)amino)-3-pyridinecarboxamide] | < 500
